Test results from patent publication EP0049060A1, “Imidazoles” (BEECHAM GROUP PLC, priority 1980, dated 1982).
Where a name gives a salt, the structure may show the parent alone. Read-outs that look alike come from different tables or passages of the source.

Key:
[1] = tested on: mice; test: Prevention of Reserpine-induced Hypothermia; format: in vivo; conditions: Mus musculus, p.o., oral doses 24, 18 and 2 hours before 1 mg/kg i.v. reserpine, active = significant at p<0.05, read-out: Res Prev (lowest active dose)
Source text: (§1) The ability of the compounds of this invention to potentiate catecholaminesand 5-hydroxytryptamine was examined using the test methods (1) and (2) below, respectively. These tests are indicative of anti-depressant activity.
(1) Prevention of Reserpine-induced Hypothermia
The method of Spencer in "Anti-Depressant Drugs: Proceedings of the 1st International Symposium", p 184-204. Ed. Garattini, S and Dukes MNG, Excerpta Med Foundation, Amsterdam, 1967, was used. Groups of 5 mice were given oral doses of the test compound 24 hours, 18 hours and 2 hours before an intravenous injection of 1 mg/kg reserpine base. The oral temperatures of the mice were taken immediately before the administration of the reserpine and 6 hours afterwards. Mean temperatures of groups given test compounds are compared with the mean temperatures of the reserpinised controls using the Students t test. Compounds causing significant difference at the level p<0.05 are considered active at that dose.

[2] = tested on: mice; test: Potentiation of the Effects of 5-Hydroxytryptophan (anti-convulsant activity of 5 HTP, electroshock threshold); format: in vivo; conditions: for ED100: Mus musculus, po, dose increasing the elevation of electroshock threshold due to 5HTP by 100%
Protocol: as §1
(2) Potentiation of the Effects of 5-Hydroxytryptophan
5 HTP Potentiation was measured in mice using the potentiation of the anti-convulsant activity of 5 HTP originally-described by Buus Lassen J., (1975), Psychopharmacol, 42, 21-6. Mice (10/group) were pretreated with the compounds under investigation and 30' later received a sub-threshold level dose of L-5 HTP (100 mg/kg ip). 30 minutes later they were subjected to electroshock and the shock level (in V) required to cause tonic extensor spasm in 50% of the mice determined for all groups.
The dose of compounds required to increase the elevation of electroshock threshold due to 5HTP by 100% is determined graphically.

[3] = tested on: mice; test: Acute toxicity (LD50) in mice; conditions: initial tests
[4] = Acute toxicity (LD50) in mice; conditions: mouse, in vivo, po
[5] = target: T1, A-form of monoamine oxidase (Homo sapiens, UniProt P21397); test: Monoamine oxidase A inhibition (other initial tests); format: biochemical
T1 sequence (P21397 1-527): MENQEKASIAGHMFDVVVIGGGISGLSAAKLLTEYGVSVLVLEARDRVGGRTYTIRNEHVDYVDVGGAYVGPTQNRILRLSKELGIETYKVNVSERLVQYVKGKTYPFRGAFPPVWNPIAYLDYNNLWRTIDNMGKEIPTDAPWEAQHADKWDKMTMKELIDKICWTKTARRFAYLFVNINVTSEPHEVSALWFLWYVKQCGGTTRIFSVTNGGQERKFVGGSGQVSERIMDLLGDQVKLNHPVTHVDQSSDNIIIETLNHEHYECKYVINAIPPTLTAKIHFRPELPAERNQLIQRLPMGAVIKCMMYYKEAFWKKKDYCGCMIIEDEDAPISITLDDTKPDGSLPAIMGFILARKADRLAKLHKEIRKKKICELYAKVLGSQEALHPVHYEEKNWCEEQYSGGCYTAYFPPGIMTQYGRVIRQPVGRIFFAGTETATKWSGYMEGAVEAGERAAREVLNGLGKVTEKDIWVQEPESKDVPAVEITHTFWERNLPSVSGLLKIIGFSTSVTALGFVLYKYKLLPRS

[6] = read-out: 5-HTP Potentiation, ED100

## Cc1nccn1CCOc1ccc(Cl)cc1Cl [Example 8, 1-(2',4'-Dichlorophenoxyethyl)-2-methylimidazole]
[1]
  minimal effective dose: 10 mg/kg
[2]; read-out: 5 HTP pot ED100
  ED100: 20 mg/kg

## Cc1nccn1CCOc1ccccc1Cl [Example 7]
[1]
  minimal effective dose: 100 mg/kg

## Cc1nccn1CCOc1ccc(Br)cc1Cl [Example 16, l-(4'-Bromo-2'-chlorophenoxyethyl)-2-methylimidazole maleate]
[2]; at 30 mg/kg p.o.
  5-HTP Potentiation, % Change of control at x mg/kg, p.o.: 96% at 30

## Cc1nccn1CCOc1c(Cl)cccc1Cl [Example 14, 1-(2',6'-Dichlorophenoxyethyl)-2-methylimidazole maleate]
[2]; [6]
  ED100: 9 mg/kg

## Cc1nccn1CCCOc1ccc(Cl)cc1 [Example 2, 1-(4'-Chlorophenoxypropyl)-2-methyl imidazole]
[1]
  minimal effective dose: 3 mg/kg
[2]; read-out: 5 HTP pot ED100
  ED100: 3 mg/kg

## Cc1nccn1CCOc1ccc(Cl)c(Cl)c1 [Example 10, 1-(3',4'-Dichlorophenoxyethyl)-2-methylimidazole]
[2]; [6]
  ED100: 12 mg/kg

## Cc1nccn1CCOc1cccc(C(F)(F)F)c1 [Example 21, 1-(3'-Trifluoromethylphenoxyethyl)-2-methylimidazole maleate]
[2]; [6]
  ED100: 26 mg/kg

## Cc1nccn1CCOc1ccc(Cl)cc1Cl [formula (II)"]
[3]
  level of toxicity: low level of toxicity
[4]
  LD50: > 900 mg/kg
[5]
  inhibitor of the A-form of monoamine oxidase: selective and reversible inhibitor

## Cc1nccn1CCOc1cc(Cl)c(Cl)c(Cl)c1 [Example 17, 1-(3',4',5'-Trichlorophenoxyethyl)-2-methylimidazole maleate]
[2]; [6]
  ED100: 70 mg/kg

## Cc1nccn1CCCOc1ccc(F)cc1 [Example 9]
[2]; read-out: 5 HTP pot ED100
  ED100: 10 mg/kg

## 1-(2',4'-Dichlorophenoxyethyl)-4(5)-methylimidazole maleate [Example 22]
[2]; at 30 mg/kg p.o.
  5-HTP Potentiation, % Change of control at x mg/kg, p.o.: 138% at 30

## CCc1nccn1CCOc1ccc(Cl)cc1Cl [Example 23, 1-(2',4'-Dichlorophenoxyethyl)-2-ethylimidazole maleate]
[2]; [6]
  ED100: 53 mg/kg

## COc1ccc(OCCn2ccnc2C)cc1 [Example 5]
[1]
  minimal effective dose: 10 mg/kg

## Cc1nccn1CCOc1cc(Cl)cc(Cl)c1.O=C(O)/C=C\C(=O)O [Example 11, 1-(3',5'Dichlorophenoxyethyl)-2-methylimidazole maleate]
[2]; [6]
  ED100: 18 mg/kg

## Cc1nccn1CCOc1ccccc1 [Example 20, 1-(2'-Phenoxyethyl)-2-methylimidazole]
[2]; [6]
  ED100: 10 mg/kg

## Cc1cc(Cl)ccc1OCCn1ccnc1C [Example 18, 1-(4'-Chloro-2'-methylphenoxyethyl)-2-methylimidazole maleate]
[2]; [6]
  ED100: 10 mg/kg

## Cc1nccn1CCOc1cc(Cl)ccc1Cl [Example 13, l-(2',5'-Dichlorophenoxyethyl)-2-methylimidazole maleate]
[2]; [6]
  ED100: 19 mg/kg

## Cc1nccn1CCOc1ccc(Cl)cc1 [Example 1, 1-(4'-Chlorophenoxyethyl)-2-methyl imidazole]
[1]
  minimal effective dose: 10 mg/kg
[2]; read-out: 5 HTP pot ED100
  ED100: 5 mg/kg

## Cc1nccn1CCCCOc1ccc(Cl)cc1 [Example 3, 1-(4'-Chlorophenoxybutyl)-2-methyl imidazole]
[1]
  minimal effective dose: 100 mg/kg
[2]; read-out: 5 HTP pot ED100
  ED100: 16 mg/kg

## Cc1nccn1CCOc1ccc(F)cc1 [Example 4]
[1]
  minimal effective dose: 100 mg/kg
[2]; read-out: 5 HTP pot ED100
  ED100: 1 mg/kg

## Cc1nccn1CCOc1ccc(Br)cc1Br.O=C(O)/C=C\C(=O)O [Example 15, 1-(2',4'-Dibromophenoxyethyl)-2-methylimidazole maleate]
[2]; [6]
  ED100: 34 mg/kg

## Cc1cc(OCCn2ccnc2C)cc(C)c1Cl [Example 19, 1-(4'-Chloro-3',5'-dimethylphenoxyethyl)-2-methylimidazole maleate]
[2]; at 100 mg/kg p.o.
  5-HTP Potentiation, % Change of control at x mg/kg, p.o.: 77% at 100

## Cc1nccn1CCOc1cccc(Cl)c1 [Example 6]
[1]
  minimal effective dose: 100 mg/kg
[2]; read-out: 5 HTP pot ED100
  ED100: 7 mg/kg

## Cc1nccn1CCOc1cccc(Cl)c1Cl [Example 12, 1-(2',3'-Dichlorophenoxyethyl)-2-methylimidazole maleate]
[2]; [6]
  ED100: 28 mg/kg
